Test results from patent US20190247361A1, “OXYTOCIN ANTAGONIST DOSING REGIMENS FOR PROMOTING EMBRYO IMPLANTATION AND PREVENTING MISCARRIAGE” (ObsEva S.A., priority 2016, published 2019).

Columns and labels:
[1] = test system: subjects undergoing embryo transfer therapy; test: Phase 2 clinical study: pregnancy and live birth after embryo transfer; type: in vivo, human
Excerpt: A total of 247 female subjects were selected for treatment based on a variety of inclusion criteria. Of these, 244 subjects completed the study. The study was open to healthy female volunteers from 18 to 36 years of age that had previously undergone up to one IVF or ICSI cycle that resulting in a negative pregnancy test as assessed by hCG detection, despite the transfer of at least one embryo of good quality, which was defined as an embryo having from six to eight blastomeres of uniform size and shape on the day of embryo transfer, ooplasm having no granularity, absence of multinucleation, and a maximum fragmentation of 10%. Subjects included in the study had at least one functional ovary and were capable of communicating with the investigator and research staff and complying with the requirements of the study protocol. Data are presented in the form of mean (standard deviation).
Subjects included in the study underwent an initial screening period beginning up to 12 weeks prior to the day of oocyte retrieval from the subject. During this 12-week period, subjects underwent physical and gynecological examination in preparation for oocyte retrieval. This analysis included a recordation of the subjects' vital signs, hematology and biochemistry analysis of blood samples withdrawn from the subjects, urinary analysis, and a comprehensive review of the subjects' medical histories.
At the conclusion of the screening period, subjects underwent controlled ovarian hyperstimulation by administration of a GnRH antagonist so as to prevent a premature rise in serum LH concentration. Concurrent pre-treatment with an oral contraceptive prior to controlled ovarian hyperstimulation was allowed, but not required. Final follicular maturation was performed with a single administration of hCG to the subject. Luteal support was performed by intravaginal administration of micronized natural progesterone at a dose of 600 mg (3×200 mg dosage forms) daily, commencing within 6-24 hours of oocyte retrieval. Progesterone administration continued for at least 6 weeks following embryo transfer for subjects testing positive for pregnancy at 14 days following embryo transfer. Retrieved oocytes contained at least 1-4 mature oocytes (i.e., ova), which were subsequently used for IVF or ICSI for embryo generation.
The embryo transfer procedure was conducted three days after the oocyte retrieval day (OPU+3 days). Subjects undergoing embryo transfer were monitored prior to initiating the procedure. This analysis included a recordation of vital signs, as well as a transvaginal ultrasound to assess uterine contraction rate and endometrial thickness. […] Eligible subjects subsequently underwent blood sample analysis to determine pre-treatment levels of serum E2 and P4.
From one to two embryos of good quality were transferred to each subject. To reduce uterine contractions at the time of embryo transfer, soft or ultra-soft catheters were used and contact with the uterine fundus was avoided. Any difficulties that occurred during the embryo transfer procedure were recorded, including instances in which uterine sounding or cervical dilation were required, instances in which a harder catheter was required, or instances in which blood was found in any part of the catheter.
Approximately 1 hour following embryo transfer, subjects underwent a final physical examination and were subsequently discharged from the clinical unit until the first follow-up visit, which occurred at about 14 days following oocyte retrieval (OPU+14 days). At this time, subjects underwent a physical examination as well as a blood sample analysis to assess pregnancy by detection of hCG. Subjects testing positive for pregnancy continued the study and were scheduled for follow-up examinations at about 6 weeks following embryo transfer and at about 10 weeks following oocyte retrieval (OPU+10 weeks). Subjects that returned for examination at about 6 weeks following embryo transfer underwent ultrasound analysis. […]

CYP2D6 = CYP2D6 (Homo sapiens, UniProt P10635); test: metabolism by CYP2D6 isoform; type: in vitro ADME; details: for Compound Remaining (% of compound present at t = 0 min): 5 μM
Sequence of CYP2D6 (P10635 whole entry, canonical isoform): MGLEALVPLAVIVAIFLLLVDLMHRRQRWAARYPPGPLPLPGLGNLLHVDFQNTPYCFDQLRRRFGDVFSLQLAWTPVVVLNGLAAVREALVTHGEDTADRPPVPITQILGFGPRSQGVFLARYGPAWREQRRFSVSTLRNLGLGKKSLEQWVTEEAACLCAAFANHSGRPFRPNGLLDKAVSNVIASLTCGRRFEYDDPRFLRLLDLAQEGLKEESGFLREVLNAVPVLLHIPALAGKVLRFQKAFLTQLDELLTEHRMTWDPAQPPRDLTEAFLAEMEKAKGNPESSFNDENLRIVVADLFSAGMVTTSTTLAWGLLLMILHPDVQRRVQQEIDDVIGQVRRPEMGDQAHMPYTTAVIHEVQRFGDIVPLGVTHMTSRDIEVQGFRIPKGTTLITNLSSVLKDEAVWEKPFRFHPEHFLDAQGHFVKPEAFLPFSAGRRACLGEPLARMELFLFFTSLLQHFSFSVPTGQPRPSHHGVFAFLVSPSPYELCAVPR
Protocol: (§1) At five time points over the course of a 45 minute experiment, the compounds were analyzed by LC-MS/MS. The percentage of each compound remaining at each time point, along with the metabolic half-lives of each compound in the presence of each cytochrome P450 isoform, are indicated in Tables 10-12, below.

CYP2C19 = CYP2C19 (Homo sapiens, UniProt P33261); test: metabolism by CYP2C19 isoform; type: in vitro ADME; details: for Compound Remaining (% of compound present at t = 0 min): 5 μM
Sequence of CYP2C19 (P33261 whole entry, canonical isoform): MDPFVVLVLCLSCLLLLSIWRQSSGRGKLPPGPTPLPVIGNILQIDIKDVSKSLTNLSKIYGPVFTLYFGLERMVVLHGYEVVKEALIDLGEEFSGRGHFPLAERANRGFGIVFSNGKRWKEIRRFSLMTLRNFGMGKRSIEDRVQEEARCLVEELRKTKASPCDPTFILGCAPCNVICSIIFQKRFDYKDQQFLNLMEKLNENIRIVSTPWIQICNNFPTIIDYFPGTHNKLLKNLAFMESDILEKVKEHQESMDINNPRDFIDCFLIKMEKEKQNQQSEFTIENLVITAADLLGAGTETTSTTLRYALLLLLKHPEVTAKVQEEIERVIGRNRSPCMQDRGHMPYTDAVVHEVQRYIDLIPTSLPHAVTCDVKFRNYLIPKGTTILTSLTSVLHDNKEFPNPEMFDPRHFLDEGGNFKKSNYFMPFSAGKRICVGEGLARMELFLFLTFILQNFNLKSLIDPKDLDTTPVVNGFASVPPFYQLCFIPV
Protocol: as §1

human subjects = details: cited from earlier work
[2] = test system: spontaneous uterine contractions; details: anesthetized late-term pregnant rats, cited from earlier work
[3] = All P4 quartiles, 1 embryo transferred, 100 mg dose
[4] = All P4 quartiles, 1 embryo transferred, 300 mg dose
[5] = All P4 quartiles, 1 embryo transferred, 900 mg dose
[6] = All P4 quartiles, 1 embryo transferred, All doses
[7] = All P4 quartiles, 2 embryos transferred, 100 mg dose
[8] = All P4 quartiles, 2 embryos transferred, 300 mg dose
[9] = All P4 quartiles, 2 embryos transferred, 900 mg dose
[10] = All P4 quartiles, 2 embryos transferred, All doses
[11] = Excluding upper P4 quartile, 1 embryo transferred, 100 mg dose
[12] = Excluding upper P4 quartile, 1 embryo transferred, 300 mg dose
[13] = Excluding upper P4 quartile, 1 embryo transferred, 900 mg dose
[14] = Excluding upper P4 quartile, 1 embryo transferred, All doses
[15] = Excluding upper P4 quartile, 2 embryos transferred, 100 mg dose
[16] = Excluding upper P4 quartile, 2 embryos transferred, 300 mg dose
[17] = Excluding upper P4 quartile, 2 embryos transferred, 900 mg dose
[18] = Excluding upper P4 quartile, 2 embryos transferred, All doses
[19] = excluding subjects from pre-treatment serum P4 concentration Q4, 100 mg dose
[20] = excluding subjects from pre-treatment serum P4 concentration Q4, 300 mg dose
[21] = excluding subjects from pre-treatment serum P4 concentration Q4, 900 mg dose
[22] = excluding subjects from pre-treatment serum P4 concentration Q4, All doses

CO/N=C1/C[C@@H](CO)N(C(=O)c2ccc(-c3ccccc3C)cc2)C1 [Compound (II), (3Z,5S)-5-(hydroxymethyl)-1-[(2′-methyl-1,1′-biphenyl-4-yl)carbonyl]pyrrolidin-3-one O-methyloxime]
Live birth rate at a gestational age of at least 24 weeks [1, 3]: (33.33%) | Live birth rate at a gestational age of at least 24 weeks, Frequency [1, 3]: 13/39 | Live birth rate at a gestational age of at least 24 weeks [1, 4]: (33.33%) | Live birth rate at a gestational age of at least 24 weeks, Frequency [1, 4]: 12/36 | Live birth rate at a gestational age of at least 24 weeks [1, 5]: (40.00%) | Live birth rate at a gestational age of at least 24 weeks, Frequency [1, 5]: 14/35 | Live birth rate at a gestational age of at least 24 weeks [1, 6]: (35.45%) | Live birth rate at a gestational age of at least 24 weeks, Frequency [1, 6]: 39/110 | Live birth rate at a gestational age of at least 24 weeks [1, 7]: (52.17%) | Live birth rate at a gestational age of at least 24 weeks, Frequency [1, 7]: 12/23 | Live birth rate at a gestational age of at least 24 weeks [1, 8]: (37.50%) | Live birth rate at a gestational age of at least 24 weeks, Frequency [1, 8]: 9/24 | Live birth rate at a gestational age of at least 24 weeks [1, 9]: (50.00%) | Live birth rate at a gestational age of at least 24 weeks, Frequency [1, 9]: 12/24 | Live birth rate at a gestational age of at least 24 weeks [1, 10]: (46.48%) | Live birth rate at a gestational age of at least 24 weeks, Frequency [1, 10]: 33/71 | Live birth rate at a gestational age of at least 24 weeks [1, 11]: (32.35%) | Live birth rate at a gestational age of at least 24 weeks, Frequency [1, 11]: 11/34 | Live birth rate at a gestational age of at least 24 weeks [1, 12]: (45.45%) | Live birth rate at a gestational age of at least 24 weeks, Frequency [1, 12]: 10/22 | Live birth rate at a gestational age of at least 24 weeks [1, 13]: (44.83%) | Live birth rate at a gestational age of at least 24 weeks, Frequency [1, 13]: 13/29 | Live birth rate at a gestational age of at least 24 weeks [1, 14]: (40.00%) | Live birth rate at a gestational age of at least 24 weeks, Frequency [1, 14]: 34/85 | Live birth rate at a gestational age of at least 24 weeks [1, 15]: (50.00%) | Live birth rate at a gestational age of at least 24 weeks, Frequency [1, 15]: 8/16 | Live birth rate at a gestational age of at least 24 weeks [1, 16]: (53.85%) | Live birth rate at a gestational age of at least 24 weeks, Frequency [1, 16]: 7/13 | Live birth rate at a gestational age of at least 24 weeks [1, 17]: (60.00%) | Live birth rate at a gestational age of at least 24 weeks, Frequency [1, 17]: 12/20 | Live birth rate at a gestational age of at least 24 weeks [1, 18]: (55.10%) | Live birth rate at a gestational age of at least 24 weeks, Frequency [1, 18]: 27/49 | Live birth rate at gestational age of at least 24 weeks ([1]; all subjects, 100 mg dose): 40.3% | Ongoing pregnancy rate at 6 weeks post embryo transfer ([1]; all subjects, 100 mg dose): 46.8% | Ongoing pregnancy rate at 10 weeks post oocyte retrieval ([1]; all subjects, 100 mg dose): 43.5% | Positive pregnancy test at 14 days post embryo transfer ([1]; all subjects, 100 mg dose): 56.5% | Live birth rate at gestational age of at least 24 weeks ([1]; all subjects, 300 mg dose): 35.0% | Ongoing pregnancy rate at 6 weeks post embryo transfer ([1]; all subjects, 300 mg dose): 35.0% | Ongoing pregnancy rate at 10 weeks post oocyte retrieval ([1]; all subjects, 300 mg dose): 35.0% | Positive pregnancy test at 14 days post embryo transfer ([1]; all subjects, 300 mg dose): 50.0% | Live birth rate at gestational age of at least 24 weeks ([1]; all subjects, 900 mg dose): 43.3% | Ongoing pregnancy rate at 6 weeks post embryo transfer ([1]; all subjects, 900 mg dose): 46.7% | Ongoing pregnancy rate at 10 weeks post oocyte retrieval ([1]; all subjects, 900 mg dose): 45.0% | Positive pregnancy test at 14 days post embryo transfer ([1]; all subjects, 900 mg dose): 53.3% | Live birth rate at gestational age of at least 24 weeks ([1]; all subjects, All doses): 39.6% | Ongoing pregnancy rate at 6 weeks post embryo transfer ([1]; all subjects, All doses): 42.9% | Ongoing pregnancy rate at 10 weeks post oocyte retrieval ([1]; all subjects, All doses): 41.2% | Absolute increase in live birth rate vs placebo [1, 19]: 7.4% | Live birth rate at gestational age of at least 24 weeks [1, 19]: 38.0% | Live birth rate at gestational age of at least 24 weeks, frequency [1, 19]: 19/50; | Ongoing pregnancy rate at 6 weeks post embryo transfer [1, 19]: 44.0% | Ongoing pregnancy rate at 10 weeks post oocyte retrieval [1, 19]: 42.0% | Positive pregnancy test at 14 days post embryo transfer [1, 19]: 54.0% | Absolute increase in live birth rate vs placebo [1, 20]: 18.0% | Live birth rate at gestational age of at least 24 weeks [1, 20]: 48.6% | Live birth rate at gestational age of at least 24 weeks, frequency [1, 20]: 17/35; | Ongoing pregnancy rate at 6 weeks post embryo transfer [1, 20]: 48.6% | Ongoing pregnancy rate at 10 weeks post oocyte retrieval [1, 20]: 48.6% | Positive pregnancy test at 14 days post embryo transfer [1, 20]: 62.9% | Absolute increase in live birth rate vs placebo [1, 21]: 20.4% | Live birth rate at gestational age of at least 24 weeks [1, 21]: 51.0% | Live birth rate at gestational age of at least 24 weeks, frequency [1, 21]: 25/49; | Ongoing pregnancy rate at 6 weeks post embryo transfer [1, 21]: 53.1% | Ongoing pregnancy rate at 10 weeks post oocyte retrieval [1, 21]: 51.0% | Positive pregnancy test at 14 days post embryo transfer [1, 21]: 59.2% | Absolute increase in live birth rate vs placebo [1, 22]: 14.9% | Live birth rate at gestational age of at least 24 weeks [1, 22]: 45.5% | Live birth rate at gestational age of at least 24 weeks, frequency [1, 22]: 61/134; | Ongoing pregnancy rate at 6 weeks post embryo transfer [1, 22]: 48.5% | Ongoing pregnancy rate at 10 weeks post oocyte retrieval [1, 22]: 47.0% | Compound Remaining (% of compound present at t = 0 min) (CYP2D6; 0 min): 100% | Compound Remaining (% of compound present at t = 0 min) (CYP2D6; 5 min): 80.3% | Compound Remaining (% of compound present at t = 0 min) (CYP2D6; 15 min): 50.5% | Compound Remaining (% of compound present at t = 0 min) (CYP2D6; 30 min): 22.5% | Compound Remaining (% of compound present at t = 0 min) (CYP2D6; 45 min): 12.2% | half-life at 5 μM (CYP2D6; human): 14.5 min | Compound Remaining (% of compound present at t = 0 min) (CYP2C19; 0 min): 100% | Compound Remaining (% of compound present at t = 0 min) (CYP2C19; 5 min): 93.7% | Compound Remaining (% of compound present at t = 0 min) (CYP2C19; 15 min): 79.1% | Compound Remaining (% of compound present at t = 0 min) (CYP2C19; 30 min): 67.8% | Compound Remaining (% of compound present at t = 0 min) (CYP2C19; 45 min): 59.9% | half-life at 5 μM (CYP2C19; human): 60.4 min | safely tolerated dose (human subjects): up to 1500 mg | effect on spontaneous uterine contractions ([2]; 10, 30, and 60 mg/kg): dose-dependent reduction in spontaneous uterine contractions | Inhibition of spontaneous uterine contractions ([2]; from 170 to 180 minutes after oral administration at a dose of 60 mg/kg): about 42%
